Reference: ChEMBL document CHEMBL2177046, “New aminoimidazoles as β-secretase (BACE-1) inhibitors showing amyloid-β (Aβ) lowering in brain” (J Med Chem, 2012)

Legend:
[1] = Dissociation constant, pKa of the compound by pressure-assisted capillary electrophoretic method; type: physicochemical
in vitro = settings: human, Caco-2
Plasma [2] = assay: Free plasma concentration in C57BL/6 mouse at 30 umol/kg, iv at […]; type: ADME, organism-based; settings: in vivo
Brain [3] = assay: Free drug concentration in C57BL/6 mouse brain at 30 umol/kg, iv at […]; type: ADME, organism-based; settings: in vivo
[4] = Drug uptake in C57BL/6 mouse brain at 30 umol/kg, iv at […]; type: ADME, organism-based; settings: read-out: Drug uptake
[5] = Ratio of free drug concentration in brain to free drug concentration in plasma in C57BL/6 mouse at 30 umol/kg, iv at […]; type: ADME, organism-based; settings: brain and plasma, read-out: K(p,uu,brain)
[6] = Plasma concentration in C57BL/6 mouse at 30 umol/kg, iv at […]; type: ADME, organism-based
Brain [7] = assay: Free drug concentration in C57BL/6 mouse brain at 100 umol/kg, po at […]; type: ADME, organism-based; settings: in vivo
[8] = Ratio of free drug concentration in brain to free drug concentration in plasma in guinea pig; type: ADME, Cavia porcellus; settings: brain and plasma, read-out: K(p,uu,brain)
Plasma [9] = assay: Free plasma concentration in C57BL/6 mouse at 100 umol/kg, po at […]; type: ADME, organism-based; settings: in vivo
[10] = Drug uptake in C57BL/6 mouse brain at 100 umol/kg, po at […]; type: ADME, organism-based; settings: read-out: Drug uptake
[11] = Plasma concentration in C57BL/6 mouse at 100 umol/kg, po at […]; type: ADME, organism-based
[12] = Ratio of free drug concentration in brain to free drug concentration in plasma in C57BL/6 mouse at 100 umol/kg, po at […]; type: ADME, organism-based; settings: brain and plasma, read-out: K(p,uu,brain)
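Wherever logD is given: lipophilicity determined by reversed-phase HPLC.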

logD (physchem)	pKa [1]	Papp A→B at 10 µM (in vitro) [×10⁻⁶ cm/s]	SMILES	also measured
1.2	5.9	2	CC#Cc1cncc(-c2cc(C3(C4CC4)N=C(C)C(N)=N3)ccc2O)c1 (configuration not stated)	
2.9		19	CC#Cc1ccnc(-c2cc(C3(C4CC4)N=C(C)C(N)=N3)ccc2O)c1 (configuration not stated)	
2.1	5.4	46	CC1(c2cccc(-c3cccnc3)c2)N=C(N)C(c2ccccc2)=N1 (configuration not stated)	
1.1	5.9	38	CC(C)C1=NC(C)(c2cccc(-c3cccnc3)c2)N=C1N (configuration not stated)	
2.2	6.5	34	COc1cccc(-c2cccc(C3(C)N=C(C)C(N)=N3)c2)c1 (configuration not stated)	
0.2	6.7	30	CC1=NC(C)(c2cccc(-c3cccnc3)c2)N=C1N (configuration not stated)	
2.4	5.2	30	CC(C)C1=NC(c2ccccc2)(c2cccc(-c3cncnc3)c2)N=C1N (configuration not stated)	
2.4	5.3	30	COc1ccc(C2(c3cccc(-c4cncnc4)c3)N=C(N)C(C(C)C)=N2)cc1 (configuration not stated)	
1.8			CC1=NC(c2ccccc2)(c2cccc(-c3cccnc3)c2)N=C1N (configuration not stated)	
		40	COc1cccc(-c2cccc(C3(c4ccncc4)N=C(C)C(N)=N3)c2)c1 (configuration not stated)	
2	4.9	41	CC1=NC(c2ccc(F)cc2)(c2cccc(-c3cccnc3)c2)N=C1N (configuration not stated)	
1.1	5.2	21	COc1ccc(C2(c3cccc(-c4cncnc4)c3)N=C(C)C(N)=N2)cc1 (configuration not stated)	
1.7	5.7	28	COc1ccc(C2(c3cccc(-c4cccnc4)c3)N=C(C)C(N)=N2)cc1 (configuration not stated)	Cp(f) (Plasma [2]): 720 nM; Drug uptake(free) (Brain [3]): 54 nmol/L; concentration at […] [4]: 710 nM; Kp uu at […] [5]: 0.08; concentration at […] [6]: 11500 nM
1.7		19	COc1ccc(C2(c3cccc(-c4cncnc4)c3)N=C(C)C(N)=N2)cc1C (configuration not stated)	
1.9	5.3	28	COc1c(C)cc(C2(c3cccc(-c4cncnc4)c3)N=C(C)C(N)=N2)cc1C (configuration not stated)	
1.8		21	COc1c(C)cc([C@]2(c3cccc(-c4cncnc4)c3)N=C(C)C(N)=N2)cc1C	
1.8	5.2	22	COc1c(C)cc([C@@]2(c3cccc(-c4cncnc4)c3)N=C(C)C(N)=N2)cc1C	Drug uptake(free) (Brain [7]): 19 nmol/L; Kp uu [8]: 0.16; Cp(f) (Plasma [9]): 490 nM; concentration at […] [10]: 230 nM; concentration at […] [11]: 4500 nM; Kp uu at […] [12]: 0.05
3.7		12	CC#Cc1cncc(-c2cccc(C3(c4cc(C)c(OC)c(C)c4)N=C(C)C(N)=N3)c2)c1 (configuration not stated)	
1.2	6	31	CC1=N[C@@](Cc2ccccc2)(c2cccc(-c3cncnc3)c2)N=C1N	
2		57	CC1=NC(c2cccc(-c3cncc(Cl)c3)c2)(C2CC2)N=C1N (configuration not stated)	Cp(f) (Plasma [2]): 60 nM; Drug uptake(free) (Brain [3]): 9 nmol/L; concentration at […] [4]: 180 nM; Kp uu at […] [5]: 0.16; concentration at […] [6]: 1200 nM
2.6	6.2	41	CC1=NC(c2cccc(-c3cccnc3)c2)(C2CCCCC2)N=C1N (configuration not stated)	
2.5	6	22	COc1cccc(-c2cccc(C3(C4CCOCC4)N=C(C)C(N)=N3)c2)c1 (configuration not stated)	
	5.7		COc1cccc(-c2cccc(C3(C4CCN(C(C)=O)CC4)N=C(C)C(N)=N3)c2)c1 (configuration not stated)	
2.3	5.8	27	CC#Cc1cncc(-c2cccc(C3(C4CC4)N=C(C)C(N)=N3)c2)c1 (configuration not stated)	Cp(f) (Plasma [2]): 310 nM; Drug uptake(free) (Brain [3]): 21 nmol/L; concentration at […] [4]: 980 nM; Kp uu at […] [5]: 0.07; concentration at […] [6]: 3700 nM
